In PubChem BioAssay (NCI):
Values joined by “and” are separate entries in the source; they are usually repeats but may differ in a detail not shown here. Equal values may be shown once.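 Assay format: 96-well plates, 48-hour exposure. GI50 is the concentration that inhibits growth by half. TGI is the concentration that stops growth completely.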

How the values were obtained:
Experiment in all cases: growth of human tumour cells (NCI), 48 h
HOP-62 NSCLC = system: HOP-62 NSCLC
IGROV1 ovarian = system: IGROV1 ovarian
LOX IMVI melanoma = system: LOX IMVI melanoma
MCF7 breast = system: MCF7 breast
MDA-MB-231 breast = system: MDA-MB-231 breast
OVCAR-3 ovarian = system: OVCAR-3 ovarian
SF-268 CNS = system: SF-268 CNS
SK-MEL-28 melanoma = system: SK-MEL-28 melanoma
SN12C renal = system: SN12C renal
U251 CNS = system: U251 CNS

Row | Compound | GI50 (HOP-62 NSCLC) | TGI (HOP-62 NSCLC) | GI50 (IGROV1 ovarian) | TGI (IGROV1 ovarian) | GI50 (LOX IMVI melanoma) | TGI (LOX IMVI melanoma) | GI50 (MCF7 breast) | TGI (MCF7 breast) | GI50 (MDA-MB-231 breast) | TGI (MDA-MB-231 breast) | GI50 (OVCAR-3 ovarian) | TGI (OVCAR-3 ovarian) | GI50 (SF-268 CNS) | TGI (SF-268 CNS) | GI50 (SK-MEL-28 melanoma) | TGI (SK-MEL-28 melanoma) | GI50 (SN12C renal) | TGI (SN12C renal) | GI50 (U251 CNS) | TGI (U251 CNS)
1 | COc1ccc2cc(-c3ccoc(=O)c3-c3cc(OC)c(OC)c(OC)c3)ccc2c1 | 0.27 µM | > 100 µM | 0.0339 µM | > 20.6 µM | 1.15 µM | > 100 µM | 0.0322 µM | > 57.5 µM | 0.148 µM | > 100 µM | 0.0316 µM | > 100 µM | 0.626 µM | > 100 µM | 0.683 µM | > 100 µM | 0.639 µM | > 100 µM | 0.112 µM | > 100 µM
2 | Nc1ncnc2[nH]ncc12 | 2.23 µM | > 100 µM | 0.744 µM | 4.62 µM | 0.34 µM | > 41 µM | 0.435 µM | > 100 µM | 0.577 µM | > 100 µM | 0.863 µM | 4.38 µM | 4.19 µM | > 100 µM | 2.77 µM | 99 µM | 1.3 µM | > 100 µM | 4.83 µM | > 100 µM
3 | C=CC(=O)Nc1cccc(C)c1Nc1cc(-c2cccnc2Cc2c(C)c(OC)cc(OC)c2C)ncn1 | 19 µM | 75.7 µM | 14.2 µM | 53.9 µM | 6.12 µM | 19.8 µM | 5.27 µM | > 100 µM | 5.65 µM | 70.9 µM | 7.04 µM | 38.9 µM | 9.59 µM | 60.3 µM | 16.9 µM | 69.2 µM | 11.2 µM | 64.9 µM | 6.26 µM | 30 µM
4 | O=C1C=C(Br)c2c(-c3ccccc3)oc3cccc1c23 |  | > 100 µM |  | > 100 µM |  | > 65.4 µM |  | > 100 µM |  | 78.2 µM |  | > 100 µM |  | > 81.6 µM |  | > 100 µM |  | > 100 µM |  | > 100 µM
5 | Cc1ccc(NC(=O)/C=C/c2ccccc2)c(C(N)=O)c1 | 11.1 µM | > 100 µM | 4.89 µM | > 56.1 µM | 7.87 µM | > 100 µM | 3.15 µM | > 100 µM | 5.37 µM | > 95.7 µM | 2.28 µM | 6.68 µM | 7.19 µM | > 100 µM | 3.65 µM | > 100 µM | 7.76 µM | > 100 µM | 3.8 µM | > 100 µM
6 | C[C@]12CCC3[C@@H](CC[C@@H]4c5nonc5CC[C@]34C)C1CCC(=O)N2 (stereo partly specified) |  | > 100 µM |  | > 100 µM |  | > 100 µM | > 100 µM | > 100 µM | > 100 µM | > 100 µM |  | > 100 µM |  | > 100 µM |  | > 100 µM |  | > 100 µM |  | > 100 µM
7 | O=C(C1CCCCC1)[C@@H]1[C@]2(C(=O)NC3CCCCC32)[C@@H]2CCCN2[C@@]12C(=O)NC1CCC(Cl)CC12 (stereo partly specified) | 123 µM | 287 µM | 53.2 µM | 202 µM | 103 µM | 253 µM | 41.8 µM | 185 µM | 70.3 µM | 224 µM | 78.2 µM | 210 µM | 119 µM | 288 µM | 129 µM | 278 µM | 61.2 µM | 197 µM | 148 µM | 316 µM
8 | O=S(=O)(NCCNC/C=C/c1ccc(Br)cc1)c1cccc2cnccc12 | 7.49 µM and 8.6 µM | 21.7 µM and 22.2 µM | 6.4 µM and 10.4 µM | 23.2 µM and 26.4 µM | 7.64 µM and 12.1 µM | 25.6 µM and 25.2 µM | 8.98 µM and 9.53 µM | 25.1 µM and 25.4 µM | 8.1 µM and 14.2 µM | 21.7 µM and 29.7 µM | 12 µM and 14.2 µM | 24.6 µM and 28.3 µM | 8.14 µM and 11.1 µM | 22.1 µM and 25.7 µM | 7.33 µM and 11.2 µM | 20 µM and 25.4 µM | 7.25 µM and 14.6 µM | 21 µM and 31.4 µM | 9.55 µM and 13.8 µM | 23.9 µM and 26.7 µM
9 | N/C(=N\N=C\c1ccc(-c2ccccc2)cc1)N[N+](=O)[O-] | 2.64 µM | > 100 µM | 28 µM | > 100 µM | 5.75 µM | > 100 µM | 1.47 µM | > 100 µM | > 68 µM | > 100 µM | 1.67 µM | 9.5 µM | 7.07 µM | > 100 µM | 25.3 µM | > 100 µM | 7.3 µM | > 100 µM | 3.05 µM | > 100 µM
10 | Cc1cc2c3ccc(C)[n+](C)c3ccc2n1C | 2.8 µM | 18.8 µM | 3.14 µM | 65.3 µM | 5.05 µM | 30.2 µM | 4.07 µM | 90 µM | 5.14 µM | 55.3 µM | 3.45 µM | 23.2 µM | 2.99 µM | 15.9 µM | 6.05 µM | 19.5 µM | 2.69 µM | 15.9 µM | 1.9 µM | 15.1 µM
11 | O=C(NN1C(=O)CSC12CCCCC2)c1[nH]c2ccc(F)cc2c1-c1ccccc1 | 19.2 µM | 41.2 µM | 14.4 µM | 32.9 µM | 24.1 µM | 61.9 µM | 19.4 µM | 37.3 µM | 18.8 µM | 45.8 µM | 18.8 µM | 32.9 µM | 22.7 µM | 59.6 µM | 28.2 µM | 93.2 µM | 18.2 µM | 37.5 µM | 18.2 µM | 39.2 µM
12 | O=C1C(=O)c2c(nc3ccc(Cl)cn23)-c2ccccc21 | 0.666 µM | 1.66 µM | 0.646 µM |  | 0.216 µM | 0.498 µM | 0.167 µM | 0.356 µM | 0.296 µM | 3.95 µM | 0.249 µM | 0.908 µM | 0.307 µM | 1.18 µM | 0.253 µM | 0.557 µM | 0.219 µM | 0.567 µM | 0.274 µM | 0.721 µM
13 | CNC(=O)OCc1c(COC(=O)NC)c(C)n(-c2ccc(Br)cc2)c1C |  | 29.1 µM |  | 19.1 µM |  | 23.9 µM |  | 25.9 µM |  | 30.5 µM |  | 30.4 µM |  | 34.5 µM |  | 35.2 µM |  | 32.8 µM |  | 25.5 µM
14 | O[C@H]1CO[C@H]2[C@@H]1OC[C@@H]2Oc1ccc(Nc2ccnc(Nc3ccc(O[C@H]4CO[C@H]5[C@@H]4OC[C@@H]5O)c(Cl)c3)n2)cc1Cl | 1.71 µM | 4.03 µM | 0.757 µM | 6.08 µM | 1.26 µM | 3.18 µM | 1.73 µM | 5.44 µM | 1.81 µM | 6.04 µM | 1.56 µM | 7.17 µM | 1.63 µM | 4.98 µM | 3.04 µM | 11.6 µM | 1.59 µM | 6.15 µM | 1.62 µM | 4.02 µM
15 | CC(CN1CCN(CCOCCO)CC1)CN1c2ccccc2Sc2ccc(Cl)cc21 (stereo unspecified) | 3.52 µM | 13.4 µM | 3.36 µM | 13.3 µM | 1.74 µM | 3.27 µM | 2.64 µM | 6.61 µM | 1.86 µM | 4.79 µM | 3.62 µM | 12.7 µM | 4.87 µM | 18.4 µM | 1.75 µM | 3.22 µM | 3.86 µM | 17.1 µM | 2.19 µM | 6.04 µM
